The values that follow are results of earlier work, collected in patent US11207302B2, “1,2,5-oxadiazoles as inhibitors of indoleamine 2,3-dioxygenase” (Incyte Corporation, priority 2008, dated 2021).

The test system of one series is P815 tumor. The following applies: pre-immunized immune-competent mice challenged with murine tumor cells.
The next series has as its system LLC tumors. As to conditions: LLC tumors in C57Bl/6 mice, versus placebo.

With `Cn1cc(C[C@H](N)C(=O)O)c2ccccc21` [Example 1-MT, 1-methyl-tryptophan], the growth of tumors result in the series on P815 tumor was “inhibited”. The formation of tumors entry with LLC tumors is recorded as “markedly delayed”.
